{
  "source": "patent US7632678B2",
  "about": "“Cancer stem cells and uses thereof” (The Hospital for Sick Children, priority 2005, dated 2009)",
  "system": "Tumor-initiating cells (NB12)",
  "assay": "IC50 determination, alamarBlue cell survival/growth",
  "type": "cell-based, human",
  "conditions": "10 serial dilutions 5 μM to 9 nM",
  "description": "Tumor-initiating cells and normal cells were treated with 10 serial dilutions of compounds (5 μM to 9 nM). […] (FS90=normal cells; NB12=tumor-initiating cells).\nTumor-initiating cells (NB12) and normal cells (FS90) were treated with 10 serial dilutions of compounds ranging from 5 μM to 9 nM. […] IC50 values for NB12 are given above each plot.\nIC50 values for NB12 and FS90 are given beside each plot.\nFor each cell type, cells were passaged 5 days prior to screening.",
  "data": [
    {"substance": "Dequalinium analog, C-14 linker", "values": [
      {"measurement": "IC50", "value": 1110, "unit": "nM"}
    ]}
  ]
}
